Where two headings read alike, the source gives them in different places.
What was measured:
[1] = Stability of the substance; assay type: physicochemical
rat leukemia L 5222 = test: Chemotherapeutic activity against rat Leukemia L5222; assay type: in vivo, rat (BD IX rats); settings: rat, in vivo
Protocol: Chemotherapeutic activity of methylformylamino-CNU against rat Leukemia L5222 (CNU=chloroethyl-nitroso-urea)
The compound to be tested was solved in Chremophor EL/ethanol/physiological saline and a single dose was administered intraperitoneally into tumor inoculated BD IX rats. The experiment involved an untreated control group and a number of treated groups. The doses used and the effects of the praeterminal treatment are summarized in the following Table from which the cures (animals free of tumor after 120 days) and the increase in life span (ILS, expressed as percentage of survival of the treated test group to the untreated control group) are evident.
Considering the fact that the true measure of the effectiveness of a drug against a neoplastic desease is the ability of the drug to kill the neoplastic cells at dosages that are not toxic to the host animal and that a quantitative evaluation of drug action is usually obtained by using the L1210 leucemia system in mice, it will be realized that in this test the tumor cells are injected into the peritoneal cavity of a mouse which thereafter is treated with the drug to be tested at a very early time after the inoculation of the tumor, i.e. at the first or second day after tumor inoculation. Thus such screening is done under very favourable test conditions for the drug. Contrary thereto the administration of the drug to be tested is performed relatively late in the case of the rat leucemia L5222, i.e. at the 8th day after tumor inoculation. It must, therefore, be taken that at that time tumor cells have colonized the cerebral region, i.e. the meninges, so that cures can only be obtained if the drug has an activity high enough to kill the leucemia cells in the cerebral region in a praeterminal state. Thus by far more severe test conditions are involved when treating rat leucemia L5222 or type Yoshida sarcoma which is a tumor model and which are hard to influence by known drugs.

Yoshida sarcoma [2] = assay type: in vivo, rat (male Sprague-Dawley rats); settings: for M = median survival time: i.p. day 8; for effect on the survival time on retest (in words): Experiment 5, cyclophosphamide as a standard; for effect on survival time / life expectancy (in words): experiments 1-4, MeCCNU 45, morpholino-CNU 28 (exp. 3 and 5), dimethylmorpholine-CNU 45, piperidino-CNU 15, picolyl-3-CNU 25, picolyl-3-CNU.HCl 25 mg/kg; for chemotherapeutic activity against Yoshida sarcoma in the colon wall (in words): i.p.
Protocol: The chemotherapeutic activity of nitrosoureas was compared in antitumor tests using Yoshida sarcoma ascited cells implanted into the wall of the descending colon in Sprague-Dawley rats.
(§1) Male Sprague-Dawley rats were used in the experiments. Yoshida sarcome in ascites form was maintained in the same strain of rats by serial intraperitoneal injection of 0,5 ml of ascites fluid.
(§2) 3×10^6 cells were injected into the colon wall in a manner known per se. The chemotherapeutic treatment was carried out on the eighth day after implantation of the tumor cells.
(§3) Water-insoluble compounds were dissolved in Cremophor EL/ethanol/physiological saline (20:20:60: vol.%). Water-soluble substances were dissolved in physiological saline. Cremophor EL is a surfactant on the basis of polyethoxylated castor oil. All test compounds were administered introperitoneally. The nitrosoureas were applied at approximately equitoxic doses corresponding to about 80% of the acute LD50 values observed in healthy rats of the same strain over a 28-day observation period.
(§4) Each experiment involved an untreated control group and a varying number of treated groups. Individual survival times were counted as days after tumor inoculation. At the time of death a record of whether an animal was tumor-free or not was made. All animals alive 120 days after tumor inoculation were killed. Animals that according to macroscopic examination had no tumor at the end of the experiment were considered as cured. Since in a number of control rats also no tumors occurred after 120 days the differences in cures between controls and treated animals rather than absolute numbers are reported. Differences in survival were evaluated statistically by individual comparisons between treated rats and controls using a nonparametric log-rank test (Kalbfleisch and Prentice, The statistical analysis of failure time data, Wiley, New York, 1979). Numerical evaluation was performed using a computerized system.

[3] = Mean animal weight / weight gain after tumor transplantation; assay type: in vivo, rat (Sprague-Dawley rats); settings: CP 70 (exp. 1-3), BCNU 25, MeCCNU 45 (exp. 1), picolyl-3-CNU 25, its HCl 25 (exp. 2), morpholino-CNU 28, piperidino-CNU 15 (exp. 3), dimethylmorpholino-CNU 45 mg/kg (exp. 4); for Mean animal weight on day 50: day 50 after tumor transplantation; for Mean animal weight on day 100: day 100 after tumor transplantation
Protocol: as §1, §2, §3
In all treated animals and at all doses tested the mean weight gain was lower than in the controls. Table 3 gives the mean animal weights measured 50 and 100 days after tumor transplantation in experiments 1 to 5.

[4] = Toxicity in treated tumor-bearing rats (Yoshida sarcoma experiments); assay type: in vivo, rat (Sprague-Dawley rats); settings: at the doses tested
Protocol: as §1, §2, §3, §4

Yoshida sarcoma [5] = assay type: in vivo, rat (male Sprague-Dawley rats); settings: i.p.
[6] = Experiment 3, CP 70, morpholino-CNU 28, piperidino-CNU 15 mg/kg
[7] = Experiment 3, CP 70, morpholino-CNU 28, piperidino-CNU 15 mg/kg, 30 initial animals each
[8] = Experiment 5, CP 70, picolyl-3-CNU.HCl 25, morpholino-CNU 28, piperidino-CNU 15 mg/kg
[9] = Experiment 5, CP 70, picolyl-3-CNU.HCl 25, morpholino-CNU 28, piperidino-CNU 15 mg/kg, 15 initial animals (picolyl-3-CNU.HCl 14)
[10] = Experiment 5, CP 70, piperidino-CNU 15 mg/kg

SMILES | effectiveness in rat leukemia L 5222 (in words) (rat leukemia L 5222) | tumor-free animals at the end of the experiment (in words) (Yoshida sarcoma [2]; 120 days) | % M (median survival time, untreated control = 100) (Yoshida sarcoma [2]; [6]) [%] | D1-120 = difference (%) between tf1-120 of treated and untreated animals (Yoshida sarcoma [2]; [6]) [%] | D120 = difference (%) between tf120 of treated and untreated animals (Yoshida sarcoma [2]; [6]) [%] | tf1-120 (%) (tf120 + animals dying of toxicity) (Yoshida sarcoma [2]; [6]) | tf120 (%) (animals surviving day 120 without tumor) (Yoshida sarcoma [2]; [6]) | tf1-120, No. (tf120 + animals dying of toxicity) (Yoshida sarcoma [2]; [7]) | tf120, No. (animals surviving day 120 without tumor) (Yoshida sarcoma [2]; [7]) | M = median survival time (Yoshida sarcoma [2]; [6]) [days] | effect on the survival time on retest (in words) (Yoshida sarcoma [2]) | % M (median survival time, untreated control = 100) (Yoshida sarcoma [2]; [8]) [%] | D1-120 = difference (%) between tf1-120 of treated and untreated animals (Yoshida sarcoma [2]; [8]) [%] | D120 = difference (%) between tf120 of treated and untreated animals (Yoshida sarcoma [2]; [8]) [%] | tf1-120, No. (tf120 + animals dying of toxicity) (Yoshida sarcoma [2]; [9]) | tf120, No. (animals surviving day 120 without tumor) (Yoshida sarcoma [2]; [9]) | M = median survival time (Yoshida sarcoma [2]; [8]) [days] | effect on survival time / life expectancy (in words) (Yoshida sarcoma [2]) | chemotherapeutic activity against Yoshida sarcoma in the colon wall (in words) (Yoshida sarcoma [2]) | Mean animal weight on day 50 [3] [g] | other results
NNC(=O)N(CCCl)N=O [Example 8, 1-(2-chloroethyl)-1-nitroso-3-amino-urea] |  |  |  |  |  |  |  |  |  |  |  |  |  |  |  |  |  |  |  |  | stability (in words) [1]: slightly stable; stability on storage (in words) ([1]; stored in the deep freezing compartment at -30° C.): stable for a few days
O=NN(CCCl)C(=O)NN1CCCCC1 [Piperidino-CNU, 1-(2-chloroethyl)-1-nitroso-3-(1-piperidine)urea] | very good effectiveness | remarkable increase in tumor-free animals | > 686 | 21 | 21 | 50 | 50 | 15 | 15 | > 120 | significant increasing effect on the survival time | 160 | 13 | 7 | 2 | 1 | 16 | significantly increased the survival time | active | 340 | increase in tumor-free animals (cures) above controls (Yoshida sarcoma [2]; 120 days, CP (exp. 1-3), BCNU, MeCCNU 45, dimethylmorpholine-CNU 45, piperidino-CNU 15, picolyl-3-CNU.HCl 25 mg/kg): 21%; tf1-120 (%) (tf120 + animals dying of toxicity) (Yoshida sarcoma [2]; [10]): 13%; tf120 (%) (animals surviving day 120 without tumor) (Yoshida sarcoma [2]; [10]): 7%; effect on survival time / life expectancy (in words) (Yoshida sarcoma [2]; listed as piperidino-CNU): significant increase in survival time; Mean animal weight on day 100 [3]: 410 g; toxicity (in words) [4]: No toxic effects were seen; toxicity (in words) ([4]; listed as piperidino-CNU): less toxic than cyclophosphamide; concentration reached in the distal colon (in words) (Yoshida sarcoma [5]): reached the distal colon at chemotherapeutically effective concentrations; water solubility (in words) (Water solubility): water-soluble
O=NN(CCCl)C(=O)NN1CCOCC1 [Morpholino-CNU, 1-(2-chloroethyl)-1-nitroso-3-(4-morpholino)-urea] | very good effectiveness | large number of tumor-free animals | > 686 | 41 | 34 | 70 | 63 | 21 | 19 | > 120 | significant increasing effect on the survival time | 180 | 0 | 0 | 0 | 0 | 18 | improved the survival times significantly | clear chemotherapeutic activity | 270 | tumor-free animals at the end of the experiment (in words) (Yoshida sarcoma [2]; 120 days, listed as morpholino-CNU): remarkable increase in tumor-free animals; therapeutic results compared with methyl-CCNU / clinically established nitrosoureas (in words) (Yoshida sarcoma [2]; Yoshida sarcoma of the rat implanted in the colon): better therapeutic results than e.g. the compound methyl-CCNU; effect on survival time / life expectancy (in words) (Yoshida sarcoma [2]; listed as morpholino-CNU): significant increase in survival time; chemotherapeutic activity against Yoshida sarcoma in the colon wall (in words) (Yoshida sarcoma [2]; listed as morpholino-CNU): active; Mean animal weight on day 100 [3]: 270 g; concentration reached in the distal colon (in words) (Yoshida sarcoma [5]): reached the distal colon at chemotherapeutically effective concentrations; water solubility (in words) (Water solubility): water-soluble; water solubility (in words) (Water solubility; listed as Example 2): highly water-soluble

Reference: US4377687A, “Analogs of 1-(2-chloroethyl)-1-nitroso-3-(cycloheyl)-urea substituted by heterocyclic rings or alkyl radicals” (Stiftung Deutsches Krebsforschungszentrum, priority 1978, dated 1983)
